Assay results taken from PMC6600393, “Synthesis and Cytostatic Effect of 3’-deoxy-3’-C-Sulfanylmethyl Nucleoside Derivatives with D-xylo Configuration” (Molecules, 2019).
Entries after “also recorded” stand apart in the source; their conditions may differ.

Key:
SCC = test system: SCC; parameters: method as in PMID 20947470; conditions: positive control; ref [36]; cited from earlier work
SCC cells [1] = assay: DAPI fluorescent microscopy of nucleus morphology, SCC; assay type: cell-based, mouse; conditions: 17.0 µM, 48 h, vs DMSO control
Procedure: (§1) In our experiments 4’,6-diamidino-2-phenylindole (DAPI) fluorescent DNA dye has been used for studying the cell nucleus morphology as an indicator of genotoxicity. The HaCaT and SCC cells were treated with DMSO and compound 10, fixed and stained with DAPI, then examined with fluorescent microscopy (Figure 7 and Figure 8).
(§2) For fluorescence staining, cells were breeded in the ibidi microscope slide chamber. The sample preparation process was similar to that of TLS studies, except that after 48 h the samples were fixed with PFA and washed with PBS and left to dry at room temperature overnight. DAPI dye was used for fluorescencnt labbelling of A-T rich regions of DNA.
(§3) Dehydrated slides containing fixated cells were mounted in 35 μL DAPI-Antifade Medium under 24 × […] coverslips. Fluorescence of DAPI (4′,6-diamidino-2-phenylindole) was monitored by fluorescence microscopy (Carl Zeiss Compound Universal Microscope III RS).

HaCaT cells [2] = assay: Time-lapse video-microscopy: generation time, HaCaT; assay type: cell-based, human
Procedure: (§4) Dynamic functional and morphological effects of compound 10 was investigated via time-lapse (1 frame/min) videomicroscopy under standard cell-breeding conditions. Low intensity, near-infrared (NIR) 940 nm illumination was used, for reduced phototoxicity. Parallel experiments were done in the same CO2 incubator, using two custom-built inverted microscope equipped with sensitive charge-coupled device (CCD) sensors. […] Image sequences were processed and quantitatively analyzed using NIH ImageJ open-source software-bundle. Cell size, cellular generation time, and cell growth of HaCaT and SCC cells were analyzed. Time-lapse video-microscopy record about the effect of 10 and DMSO control on HaCaT and SCC cell lines are available in Supplementary Materials.
For the investigation of the effect of compound 10 on cell-cycle, cellular generation times were measured from time-lapse image sequences.
In LTS video-microscopy studies, ~500.000/350.000 starting cell numbers (T-25 cell culture flask) had been used. Cell cultures had been treated with compound 10 using the IC50 concentration corresponding to the SCC VII.
TLS system architecture: Using the TLS system, various parameters had been tested. Control, DMSO control, and IC50 concentration of compound 10 compared to the above. Based on literature data, 1% (v/v) is the amount that is tolerated even without significant change in cells. […]

HaCaT cells [3] = assay: Time-lapse video-microscopy: mother cell size, HaCaT; assay type: cell-based, human
Procedure: as §4, with “Materials. […]” for “Materials.”
Mother cells size measurement: • Opening the image sequence in 8-bit format. • Stack Deflicker: The Stack Deflicker calculates the average grey value for each frame and normalizes all frames so that they have the same average grey level as a specified frame of the stack. […] If a region of the stack is selected the average frame intensity will be calculated from this region. • Changing the brightness/contrast, if it is neccesary. • Subtrack background: Removes smooth continuous backgrounds from gels and other images. […]

SCC cells [4] = assay: Time-lapse video-microscopy: mother cell size, SCC; assay type: cell-based, mouse
Procedure: as §4
Each cell line was treated with 17.0 µM solution of compound 10, dissolved in 1% (v/v) DMSO and diluted with cell culture media before application. Then, 1% (v/v) DMSO was used as control. […]
Mother cells size measurement: • Opening the image sequence in 8-bit format. • Stack Deflicker: The Stack Deflicker calculates the average grey value for each frame and normalizes all frames so that they have the same average grey level as a specified frame of the stack. […] If a region of the stack is selected the average frame intensity will be calculated from this region. • Changing the brightness/contrast, if it is neccesary. • Subtrack background: Removes smooth continuous backgrounds from gels and other images. […] A ball of given radius is rolled over the bottom side of this surface; the hull of the volume reachable by the ball is the background to be subtracted. • Treshold: Use this tool to automatically or interactively set lower and upper threshold values, segmenting grayscale images into features of interest and background. • Divided cells were selected on the binary image sequence based on their circularity determined by area/perimeter ratio. • Bigger pre-division mother cells were separated from smaller post-division daughter cells. • Pixel size was calibrated with Burker chamber. • Area calculation from pixel^2 to µm^2.

[5] = test system: SCC-VII (mouse squamous carcinoma) cell line; assay: MTT cell viability assay on SCC-VII cells; assay type: cell-based; conditions: for IC50: Mus musculus, 48 h
Procedure: (§5) For the investigation of the cytotoxic effect of nucleoside analogues we used healthy human keratinocyte (HaCaT) and tumorous squamous carcinoma SCC-VII cell lines. In the experiments, a standard citotoxicity assay, the MTT assay, was used in a 96-well plate. Importantly, different cell numbers were used in the case of the two different cell lines. The HaCaT cells were seeded 10^4/well concentration while the SCC-VII cells were seeded 5000/well concentration on the plate. In both cases the cells were treated with the nucleoside analogues at ~50% confluence.
SCC-VII is a carcinoma tumor that originally arose in the abdominal wall of C3H mice in Dr. Herman Suit’s laboratory at Harvard University, Boston, Massachusetts. SCC VII cells were grown in Dulbecco’s Modified Eagle’s Medium Nutrient Mixture (DMEM-HAM’S F12) (Sigma-Aldrich) supplemented with 2 mM L-glutamine, 23 mM NaHCO3, 100 U/mL penicillin, 100 U/mL streptomycin 1% non-essential amino acids and 10% fetal bovine serum.
(§6) Cell cultures had been kept under the same conditions during the experiments. Cells were stored at 37 °C, 95% humidity, and 5% CO2 in an incubator. During the MTT-assay, different starter cell number was used because of the cell cycle differences; HaCaT was started with 10.000/well meanwhile SCC VII with 5000/well. After passage, 24 h was assured for the cells to the adhesion. Then incubated with the compounds for 48 h. The experiments were performed in 96 well plates.
(§7) For the dilution of different concentrations of nucleoside analogues were prepared with DMSO 1% (v/v) and DMEM / DMEM-F12/Ham’s F12 cell culture medium.
(§8) After three days of incubation in the cell culture flask, cells were trypsinised into single cell suspensions. Aliquots (200 μL) of each cell suspension were placed in wells of 96-well-plates (Biocenter, Szeged, Hungary). Preliminary tests were conducted with cell numbers 5000 (SCC-VII) and 10,000 (HaCaT) per well. We have been tested five concentrations of each nucleoside analogues (20-10-5-2.5-1.25 µg/mL). The nucleoside analogues were dissolved in DMSO (1 v/v%) and DMEM/ DMEM-F12/Ham’s F12 were added to the wells to produce the required concentrations and the cells were similarly incubated for a further 48 h.
(§9) MTT (Sigma Aldrich, Budapest, Hungary) solution (0.5 mg/mL in PBS) 100 µL was added to each well. The plates were incubated for 1–2 h at 37 ^◦C, the wells aspirated, and MTT formazan extracted with 100 µL of DMSO aided by gentle agitation on a shaker. After 10 min at room temperature, the absorbances were read at 570 nm by an automatic plate reader (WALLAC Victor 2 1420 spectrophotometer), the instrument having been blanked beforehand on a row to which cells had not been added. Percentage viability (respiratory competence) of the population of cells in each well was expressed as: (Absorbance of treated cells/Absorbance of control cells) × 100. IC50 values of the nucleoside analogues were determined by Graphpad.

HaCaT cells [6] = assay: DAPI fluorescent microscopy of nucleus morphology, HaCaT; assay type: cell-based, human; conditions: 17.0 µM, 48 h, vs DMSO control
Procedure: as §1, §2, §3

[7] = test system: HaCaT (human keratinocyte) cell line; assay: MTT cell viability assay on HaCaT cells; assay type: cell-based; conditions: for IC50: Homo sapiens, HaCaT, 48 h
Procedure: as §5
The HaCaT cell line was derived from human skin, the cells spontaneously transformed in vitro during long time incubation. Cells were cultured in DMEM medium (Biocenter, Szeged, Hungary) containing 10% fetal bovine serum (FBS, Hyclon, Logan, UT) and 1% antibiotic-antimycotic mix (Penicillin–Streptomycin–Neomycin).
as §6, §7, §8, §9

O=c1[nH]cc(F)c(=O)[nH]1 [Compound 5-FU, 5-fluorouracil]
IC50 (SCC): 60.7 ± 8.45 µM

CCCCSC[C@@H]1[C@@H](O[Si](C)(C)C(C)(C)C)[C@H](n2cc(C)c(=O)[nH]c2=O)O[C@@H]1CO[Si](C)(C)C(C)(C)C [Compound 10, 1-[3’-Deoxy-3’-C-(n-butylsulfanylmethyl)-2’,5’-di-O-(tert-butyldimethylsilyl)-β-D-xylofuranosyl]-thymine]
nucleus morphology (DAPI), genotoxicity (SCC cells [1]): genotoxic effect | Treated/DMSO Difference (generation time) (HaCaT cells [2]; 17.0 µM): 20.8% | Treated Cells Gen. Time (HaCaT cells [2]; 17.0 µM compound 10, n = 15): 21.67 ± 1.01 h | mother cell size-reduction vs. DMSO (HaCaT cells [3]; 17.0 µM): 9% | Treated Cells Size (mother cells) (HaCaT cells [3]; 17.0 µM compound 10, n = 15): 21.60 ± 1.93 µm^2 | overall size change difference between the two cell lines (SCC cells [4]; HaCaT vs SCC mother cells, 17.0 µM): ~ 21% | Treated Cells Size (mother cells) (SCC cells [4]; SCC, 17.0 µM compound 10, n = 15): 21.44 ± 1.42 µm^2 | Treated/DMSO Difference (mother cell size) (SCC cells [4]; SCC, 17.0 µM, (treated cells size/DMSO control cell size)*100-100): 12.8% | SI (selectivity index) ([5]; HaCaT IC50/SCC IC50): 1.64 | IC50 [5]: 17 ± 1.55 µM | nucleus morphology (DAPI) (HaCaT cells [6]): no apparent difference | IC50 [7]: 27.9 ± 1.85 µM

CCSC[C@@H]1[C@@H](O)[C@H](n2cc(C)c(=O)[nH]c2=O)O[C@@H]1CO [Compound 19, 1-[3’-Deoxy-3’-C-(n-ethylsulfanylmethyl)-β-D-xylofuranosyl]-thymine]
SCC IC50 ([5]; MTT, 48 h incubation, 5000 cells/well, '-' = no cytotoxicity at 20 µg/mL): did not show any cytotoxic activity; also recorded: no activity | IC50 [5]: > 20 µg/mL | IC50 [7]: > 20 µg/mL | HaCaT IC50 ([7]; MTT, 48 h incubation, 10,000 cells/well, '-' = no cytotoxicity at 20 µg/mL): did not show any cytotoxic activity; also recorded: no activity

CN(Cc1cnc2nc(N)nc(N)c2n1)c1ccc(C(=O)N[C@@H](CCC(=O)O)C(=O)O)cc1 [Methotrexate, reference compound]
IC50 [5]: 216 ± 2.33 µM | IC50 [7]: 290.4 ± 2.76 µM
